Reference: US7446199B2, “Compositions useful as inhibitors of protein kinases” (Vertex Pharmaceuticals Incorporated, priority 2003, dated 2008)
pKi: −log10 of the molar value.

How the values were obtained:
JAK3 = target: T1, JAK3 (Homo sapiens, UniProt P52333); assay: JAK3 inhibition assay (ELISA, Poly (Glu, Ala, Tyr) coated plates); type: biochemical; conditions: 2 mM ATP, 60 minutes at 30° C.
T1 sequence (P52333 1-1124): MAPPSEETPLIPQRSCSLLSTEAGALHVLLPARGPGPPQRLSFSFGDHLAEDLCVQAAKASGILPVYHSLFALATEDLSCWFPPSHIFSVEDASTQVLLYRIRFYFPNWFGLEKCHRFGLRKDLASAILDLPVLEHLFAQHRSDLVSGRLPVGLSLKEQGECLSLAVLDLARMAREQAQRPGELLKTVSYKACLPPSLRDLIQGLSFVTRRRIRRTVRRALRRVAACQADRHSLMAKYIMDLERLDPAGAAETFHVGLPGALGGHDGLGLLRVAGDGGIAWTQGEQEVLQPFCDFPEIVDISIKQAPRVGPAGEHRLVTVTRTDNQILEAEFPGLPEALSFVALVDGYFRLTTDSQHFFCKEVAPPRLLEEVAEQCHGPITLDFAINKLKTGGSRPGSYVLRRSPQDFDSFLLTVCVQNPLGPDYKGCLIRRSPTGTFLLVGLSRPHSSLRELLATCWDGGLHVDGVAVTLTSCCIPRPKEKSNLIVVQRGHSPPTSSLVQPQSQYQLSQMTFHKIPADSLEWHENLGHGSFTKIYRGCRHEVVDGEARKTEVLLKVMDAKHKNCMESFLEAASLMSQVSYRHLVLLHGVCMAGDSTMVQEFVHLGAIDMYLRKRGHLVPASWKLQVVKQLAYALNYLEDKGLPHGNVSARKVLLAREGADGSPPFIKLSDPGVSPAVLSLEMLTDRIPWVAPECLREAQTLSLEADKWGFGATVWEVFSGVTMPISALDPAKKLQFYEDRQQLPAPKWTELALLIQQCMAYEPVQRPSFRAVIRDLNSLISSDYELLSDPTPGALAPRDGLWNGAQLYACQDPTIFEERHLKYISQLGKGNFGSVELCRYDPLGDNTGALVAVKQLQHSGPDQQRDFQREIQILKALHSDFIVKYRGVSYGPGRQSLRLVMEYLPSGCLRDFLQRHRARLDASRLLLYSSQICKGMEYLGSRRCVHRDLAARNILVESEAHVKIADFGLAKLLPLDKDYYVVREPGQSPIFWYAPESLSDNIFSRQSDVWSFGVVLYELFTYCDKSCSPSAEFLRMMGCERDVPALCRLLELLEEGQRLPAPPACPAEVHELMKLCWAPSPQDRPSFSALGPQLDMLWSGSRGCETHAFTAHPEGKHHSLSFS
In short: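 ELISA on Poly(Glu,Ala,Tyr) 6:3:1-coated plates with 2 mM ATP and 5 mM MgCl2. JAK enzyme started the reaction, run 60 min at 30° C. Phosphotyrosine was detected with HRP-conjugated 4G10 antibody and TMB, read at 450 nm, and IC50 was derived from optical densities.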

KDR = KDR (Homo sapiens, UniProt P35968); assay: KDR enzyme assay, coupled enzyme assay; type: biochemical; conditions: 300 μM ATP, 10 μM poly E4Y, 30 nM KDR, 37° C.
Sequence of KDR (P35968 20-1356): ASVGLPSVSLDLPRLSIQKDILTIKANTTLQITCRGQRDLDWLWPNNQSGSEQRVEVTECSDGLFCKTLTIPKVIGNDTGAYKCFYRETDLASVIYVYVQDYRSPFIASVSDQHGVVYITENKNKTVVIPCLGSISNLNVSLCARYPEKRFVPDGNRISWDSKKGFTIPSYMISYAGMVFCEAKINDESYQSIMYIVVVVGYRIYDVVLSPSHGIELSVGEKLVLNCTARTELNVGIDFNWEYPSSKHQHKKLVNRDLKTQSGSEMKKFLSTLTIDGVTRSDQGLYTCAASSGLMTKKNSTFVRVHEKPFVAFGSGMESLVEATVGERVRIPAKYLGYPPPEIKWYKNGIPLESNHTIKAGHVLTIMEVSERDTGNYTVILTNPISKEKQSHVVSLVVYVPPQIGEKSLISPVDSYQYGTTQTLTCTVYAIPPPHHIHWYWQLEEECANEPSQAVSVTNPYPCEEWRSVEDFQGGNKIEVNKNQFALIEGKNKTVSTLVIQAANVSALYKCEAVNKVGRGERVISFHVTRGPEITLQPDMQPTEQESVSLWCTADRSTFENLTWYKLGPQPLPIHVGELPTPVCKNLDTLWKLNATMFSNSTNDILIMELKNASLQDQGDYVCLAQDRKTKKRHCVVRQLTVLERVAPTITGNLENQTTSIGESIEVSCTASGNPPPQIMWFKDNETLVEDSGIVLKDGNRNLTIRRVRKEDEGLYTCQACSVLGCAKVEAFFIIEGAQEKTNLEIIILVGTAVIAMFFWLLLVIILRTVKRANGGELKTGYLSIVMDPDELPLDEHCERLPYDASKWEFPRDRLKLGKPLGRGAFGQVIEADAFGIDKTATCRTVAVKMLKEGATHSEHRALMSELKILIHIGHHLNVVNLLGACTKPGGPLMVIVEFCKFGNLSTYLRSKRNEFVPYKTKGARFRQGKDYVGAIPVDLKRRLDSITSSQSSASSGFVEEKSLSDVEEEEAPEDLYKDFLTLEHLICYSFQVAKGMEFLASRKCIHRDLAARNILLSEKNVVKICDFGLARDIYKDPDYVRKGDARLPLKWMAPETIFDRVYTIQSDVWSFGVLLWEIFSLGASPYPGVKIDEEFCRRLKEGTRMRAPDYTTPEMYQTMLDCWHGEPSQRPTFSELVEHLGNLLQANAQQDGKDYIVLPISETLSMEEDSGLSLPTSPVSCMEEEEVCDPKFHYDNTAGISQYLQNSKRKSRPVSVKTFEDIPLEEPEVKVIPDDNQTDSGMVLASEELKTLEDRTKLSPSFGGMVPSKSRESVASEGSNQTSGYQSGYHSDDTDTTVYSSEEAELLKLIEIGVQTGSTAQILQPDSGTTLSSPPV
Procedure: Compounds were screened for their ability to inhibit KDR using a standard coupled enzyme assay (Fox et al., Protein Sci., (1998) 7, 2249). Assays were carried out in a mixture of 200 mM HEPES 7.5, 10 mM MgCl2, 25 mM NaCl, 1 mM DTT and 1.5% DMSO. Final substrate concentrations in the assay were 300 μM ATP (Sigma Chemicals) and 10 μM poly E4Y (Sigma). Assays were carried out at 37° C. and 30 nM KDR. Final concentrations of the components of the coupled enzyme system were 2.5 mM phosphoenolpyruvate, 200 μM NADH, 30 μg/ML pyruvate kinase and 10 μg/ml lactate dehydrogenase.
An assay stock buffer solution was prepared containing all of the reagents listed above, with the exception of ATP and the test compound of interest. 177 μl of the stock solution was placed in a 96 well plate followed by addition of 3 μl of 2 mM DMSO stock containing the test compound (final compound concentration 30 μM). The plate was preincubated for about 10 minutes at 37° C. and the reaction initiated by addition of 20 μl of ATP (final concentration 300 μM). Rates of reaction were obtained using a Molecular Devices plate reader (Sunnyvale, Calif.) over a 5 minute read time at 37° C.

| Compound | pKi (JAK3) | pKi (KDR) |
| --- | --- | --- |
| CN1CCN(C(=O)[C@H]2C[C@H]2c2cnc3[nH]cc(-c4oncc4-c4cccc(F)c4F)c3c2)CC1 (relative stereo) [Compound 143, cis-(2-{3-[4-(2,3-Difluoro-phenyl)-isoxazol-5-yl]-1H-pyrrolo[2,3-b]pyridin-5-yl}-cyclopropyl)-(4-methyl-piperazin-1-yl)-methanone] | 4.90 to 6.00 | – |
| Clc1cccc(-c2cnoc2-c2c[nH]c3ncccc23)c1Cl [Compound 2, 3-[4-(2,3-Dichloro-phenyl)-isoxazol-5-yl]-1H-pyrrolo[2,3-b]pyridine] | 6.00 to 6.70 | 6.00 to 6.70 |
| Fc1cccc(Cc2cnoc2-c2c[nH]c3ncccc23)c1F [Compound 36, 3-[4-(2,3-Difluoro-benzyl)-isoxazol-5-yl]-1H-pyrrolo[2,3-b]pyridine] | 4.90 to 6.00 | 4.90 to 6.00 |
| Fc1cccc(-c2cnoc2-c2c[nH]c3ncc(Br)cc23)c1F [Compound 37, 5-Bromo-3-[4-(2,3-difluoro-phenyl)-isoxazol-5-yl]-1H-pyrrolo[2,3-b]pyridine] | > 6.70 | 6.00 to 6.70 |
| Fc1c(Cl)cccc1-c1cnoc1-c1c[nH]c2ncccc12 [Compound 42, 3-[4-(3-Chloro-2-fluoro-phenyl)-isoxazol-5-yl]-1H-pyrrolo[2,3-b]pyridine] | 6.00 to 6.70 | 6.00 to 6.70 |
| c1cnc2[nH]cc(-c3oncc3C3CCCCC3)c2c1 [Compound 47, 3-(4-Cyclohexyl-isoxazol-5-yl)-1H-pyrrolo[2,3-b]pyridine] | 6.00 to 6.70 | 4.90 to 6.00 |
| CN(C)c1ccnc2[nH]cc(-c3oncc3-c3cccc(F)c3F)c12 [Compound 56, {3-[4-(2,3-Difluoro-phenyl)-isoxazol-5-yl]-1H-pyrrolo[2,3-b]pyridin-4-yl}-dimethyl-amine] | 6.00 to 6.70 | 6.00 to 6.70 |
| Fc1cccc(-c2cnoc2-c2c[nH]c3ncc(-c4ccccc4)cc23)c1F [Compound 58, 3-[4-(2,3-Difluoro-phenyl)-isoxazol-5-yl]-5-phenyl-1H-pyrrolo[2,3-b]pyridine] | > 6.70 | > 6.70 |
| CC(=O)N1CCC(c2cnc3[nH]cc(-c4oncc4-c4cccc(F)c4F)c3c2)CC1 [Compound 63, 1-(4-{3-[4-(2,3-Difluoro-phenyl)-isoxazol-5-yl]-1H-pyrrolo[2,3-b]pyridin-5-yl}-piperidin-1-yl)-ethanone] | 6.00 to 6.70 | 4.90 to 6.00 |
| N#CCC(=O)N1CCC(c2cnc3[nH]cc(-c4oncc4-c4cccc(F)c4F)c3c2)CC1 [Compound 64, 3-(4-{3-[4-(2,3-Difluoro-phenyl)-isoxazol-5-yl]-1H-pyrrolo[2,3-b]pyridin-5-yl}-piperidin-1-yl)-3-oxo-propionitrile] | 6.00 to 6.70 | 4.90 to 6.00 |
| C=Cc1cnc2[nH]cc(-c3oncc3-c3cccc(F)c3F)c2c1 [Compound 66, 3-[4-(2,3-Difluoro-phenyl)-isoxazol-5-yl]-5-vinyl-1H-pyrrolo[2,3-b]pyridine] | > 6.70 | > 6.70 |
| Fc1cccnc1-c1cnc2[nH]cc(-c3oncc3-c3cccc(F)c3F)c2c1 [Compound 74, 3-[4-(2,3-Difluoro-phenyl)-isoxazol-5-yl]-5-(3-fluoro-pyridin-2-yl)-1H-pyrrolo[2,3-b]pyridine] | 6.00 to 6.70 | 4.90 to 6.00 |
| Fc1cccc(-c2cnoc2-c2c[nH]c3ncc(-c4ncccn4)cc23)c1F [Compound 75, 3-[4-(2,3-Difluoro-phenyl)-isoxazol-5-yl]-5-pyrimidin-2-yl-1H-pyrrolo[2,3-b]pyridine] | > 6.70 | 6.00 to 6.70 |
| CN(C)C(=O)c1ccc(-c2cnc3[nH]cc(-c4oncc4-c4cccc(F)c4F)c3c2)nc1 [Compound 79, 6-{3-[4-(2,3-Difluoro-phenyl)-isoxazol-5-yl]-1H-pyrrolo [2,3-b]pyridin-5-yl}-N,N-dimethyl-nicotinamide] | > 6.70 | > 6.70 |
| CN(C)c1ccnc(-c2cnc3[nH]cc(-c4oncc4-c4cccc(F)c4F)c3c2)c1 [Compound 80, (2-{3-[4-(2,3-Difluoro-phenyl)-isoxazol-5-yl]-1H-pyrrolo[2,3-b]pyridin-5-yl}-pyridin-4-yl)-dimethyl-amine] | 4.90 to 6.00 | > 6.70 |
| CN(C)Cc1cc(Cl)nc(-c2cnc3[nH]cc(-c4oncc4-c4cccc(F)c4F)c3c2)c1 [Compound 81, (2-Chloro-6-{3-[4-(2,3-difluoro-phenyl)-isoxazol-5-yl]-1H-pyrrolo[2,3-b]pyridin-5-yl}-pyridin-4-ylmethyl)-dimethyl-amine] | 6.00 to 6.70 | > 6.70 |
| CS(=O)(=O)n1ccc2cc(-c3cnc4[nH]cc(-c5oncc5-c5cccc(F)c5F)c4c3)cnc21 [Compound 97, 3′-[4-(2,3-Difluoro-phenyl)-isoxazol-5-yl]-1-methanesulfonyl-1H, 1′H-[5,5′]bi[pyrrolo[2,3-b]pyridinyl]] | 6.00 to 6.70 | > 6.70 |
| CS(=O)(=O)Nc1ccc(-c2cnc3[nH]cc(-c4oncc4-c4cccc(F)c4F)c3c2)cc1 [Compound 98, N-(4-{3-[4-(2,3-Difluoro-phenyl)-isoxazol-5-yl]-1H-pyrrolo[2,3-b]pyridin-5-yl}-phenyl)-methane sulfonamide] | > 6.70 | > 6.70 |
| CNc1ccc2c(-c3oncc3-c3cccc(F)c3F)c[nH]c2n1 [Compound 102, {3-[4-(2,3-Difluoro-phenyl)-isoxazol-5-yl]-1H-pyrrolo[2,3-b]pyridin-6-yl}-methyl-amine] | 4.90 to 6.00 | 4.90 to 6.00 |
| Fc1cccc(-c2cnoc2-c2c[nH]c3ncc(/C=C/n4cncn4)cc23)c1F [Compound 133, 3-[4-(2,3-Difluoro-phenyl)-isoxazol-5-yl]-5-(2-[1,2,4]triazol-1-yl-vinyl)-1H-pyrrolo[2,3-b]pyridine] | > 6.70 | > 6.70 |
| Cc1noc(-c2c[nH]c3ncccc23)c1-c1cccc(F)c1F [Compound 134, 3-[4-(2,3-Difluoro-phenyl)-3-methyl-isoxazol-5-yl]-1H-pyrrolo[2,3-b]pyridine] | 6.00 to 6.70 | 4.90 to 6.00 |
| O=c1[nH]ccc2c(-c3oncc3-c3cccc(F)c3F)c[nH]c12 [Compound 145, 3-[4-(2,3-Difluoro-phenyl)-isoxazol-5-yl]-1,6-dihydro-pyrrolo[2,3-c]pyridin-7-one] | 6.00 to 6.70 | – |
| Nc1[nH]c2ncccc2c1-c1oncc1-c1cccc(F)c1F [Compound 152] | 4.90 to 6.00 | – |
